In brackets after ≈: the same amount, converted by molar mass. Where two headings read alike, the source gives them in different places.
Legend:
Providencia sp. 12012 = assay: MIC, agar serial dilution (Iso-Sensitest agar), Providencia sp. 12012; type: cell-based; conditions: 37° C., about 20 hours
Procedure: (§1) The minimum inhibitory concentrations (MIC) were determined on Iso-Sensitest agar (Oxoid) using a serial dilution method. For each substance to be tested, a series of agar plates was prepared, which plates contained diminishing concentrations of the active compound produced in each case by a doubling dilution. The agar plates were inoculated using a Multipoint Inoculator (Denley). For the inoculation, overnight cultures of the pathogens were used which had been diluted beforehand such that each inoculation point contained approximately 10^4 colony-forming particles. The inoculated agar plates were incubated at 37° C. and the growth of organisms recorded after about 20 hours. The MIC value (μg/ml) indicates the lowest concentration of active compound at which no growth was visible to the naked eye. […] Example 8 from European Patent Application 520 277): […]

in vitro = type: cell-based, Chinese hamster; conditions: hamster, cho-k1 cells
Procedure: (§2) The LD50 values listed in this table were determined following intravenous administration of the substances to CFl mice. The ID50 is understood to be the concentration of a substance at which the DNA synthesis in Chinese hamster ovary cells (CHO-KI) is inhibited by 50%. This value is determined following incubation of the corresponding substances in descending dilution steps for defined periods. For this purpose, the DNA synthesis in CHO-KI cells is determined in comparison to controls using fluorophotometric methods.

[1] = test system: Enterococcus faecalis 27101; assay: MIC, agar serial dilution (Iso-Sensitest agar), Enterococcus faecalis 27101; type: cell-based; conditions: 37° C., about 20 hours
Procedure: as §1

Micrococcus luteus 9341 = assay: MIC, agar serial dilution (Iso-Sensitest agar), Micrococcus luteus 9341; type: cell-based; conditions: 37° C., about 20 hours
Procedure: as §1

Morganella morganii 932 = assay: MIC, agar serial dilution (Iso-Sensitest agar), Morganella morganii 932; type: cell-based; conditions: 37° C., about 20 hours
Procedure: as §1

Klebsiella sp. 8085 = assay: MIC, agar serial dilution (Iso-Sensitest agar), Klebsiella sp. 8085; type: cell-based; conditions: 37° C., about 20 hours
Procedure: as §1

[2] = LD50 following intravenous administration to CFl mice (tolerance); type: in vivo; conditions: mouse, in vivo, iv
Procedure: as §2

[3] = test system: Staphylococcus aureus ICB 25701; assay: MIC, agar serial dilution (Iso-Sensitest agar), Staphylococcus aureus ICB 25701; type: cell-based; conditions: about 20 hours
Procedure: as §1

Escherichia coli Neumann = assay: MIC, agar serial dilution (Iso-Sensitest agar), Escherichia coli Neumann; type: cell-based; conditions: 37° C., about 20 hours
Procedure: as §1

[4] = test system: Staphylococcus aureus 133; assay: MIC, agar serial dilution (Iso-Sensitest agar), Staphylococcus aureus 133; type: cell-based; conditions: 37° C., about 20 hours
Procedure: as §1

CFl mice = assay: LD50 following intravenous administration to CFl mice (tolerance); type: in vivo
Procedure: as §2

[5] = test system: Chinese hamster ovary cells (CHO-KI); assay: in vitro; type: cell-based; conditions: cho-k1 cells
Procedure: as §2

[6] = Micrococcus luteus, 9341, 20 h, read-out: MIC
[7] = ICB25701, 37° C., read-out: MIC
[8] = Escherichia coli, 20 h, read-out: MIC

SMILES | MIC (Providencia sp. 12012; read-out: MIC) [µg/mL] | IC50 (in vitro) [µg/mL] | MIC ([1]; read-out: MIC) [µg/mL] | MIC (Micrococcus luteus 9341; [6]) [µg/mL] | MIC (Morganella morganii 932; read-out: MIC) [µg/mL] | MIC (Klebsiella sp. 8085; read-out: MIC) [µg/mL] | LD50 [2] [mg/kg] | MIC [3, 7] [µg/mL] | MIC (Escherichia coli Neumann; [8]) [µg/mL] | MIC ([4]; read-out: MIC) [µg/mL] | LD50 (CFl mice) [mg/kg] | MIC (Providencia sp. 12012) [µg/mL] | ID50 (concentration at which DNA synthesis is inhibited by 50%) [5] [µg/mL] | MIC [1] [µg/mL] | MIC (Micrococcus luteus 9341) [µg/mL] | MIC (Morganella morganii 932) [µg/mL] | MIC (Klebsiella sp. 8085) [µg/mL] | MIC ([3]; 37° C.) [µg/mL] | MIC (Escherichia coli Neumann) [µg/mL] | MIC [4] [µg/mL]
CN1CCC2=C(C1)CN(c1c(F)cc3c(=O)c(C(=O)O)cn([C@@H]4C[C@@H]4F)c3c1F)C2 (relative stereo) [Example 1, 6,8-difluoro-1-(cis-2-fluorocyclopropyl)-1,4-dihydro-7-(5-methyl-2,3,4,5,6,7-hexahydro-1H-pyrrolo[3,4-c]pyridin-2-yl)-4-oxo-3-quinolinecarboxylic acid] | 0.06 (≈ 0.143 µM) | 35 (≈ 83.5 µM) | 0.06 (≈ 0.143 µM) | 0.25 (≈ 0.596 µM) | 0.03 (≈ 0.0715 µM) | 0.06 (≈ 0.143 µM) | 150 | 0.5 (≈ 1.19 µM) | ≤ 0.015 | 0.06 (≈ 0.143 µM) |  |  |  |  |  |  |  |  |  | 
CN1CCC2=C(C1)CN(c1c(F)cc3c(=O)c(C(=O)O)cn([C@@H]4C[C@@H]4F)c3c1Cl)C2 (relative stereo) [Example 4, 8-chloro-6-fluoro-1-(cis-2-fluorocyclopropyl)-1,4-dihydro-7-(5-methyl-2,3,4,5,6,7-hexahydro-1H-pyrrolo[3,4-c]-pyridin-2-yl)-4-oxo-3-quinolinecarboxylic acid] | 0.06 (≈ 0.138 µM) |  | 0.06 (≈ 0.138 µM) | 0.125 (≈ 0.287 µM) | 0.06 (≈ 0.138 µM) | 0.06 (≈ 0.138 µM) |  | 0.25 (≈ 0.574 µM) | ≤ 0.015 | ≤ 0.015 |  |  |  |  |  |  |  |  |  | 
CN1CCC2=C(C1)CN(c1c(F)cc3c(=O)c(C(=O)O)cn([C@@H]4C[C@@H]4F)c3c1F)C2 (single isomer, unassigned) [Example 2, (-)-6,8-difluoro-1-(cis-2-fluorocyclopropyl)-1,4-dihydro-7-(5-methyl-2,3,4,5,6,7-hexahydro-1H-pyrrolo[3,4-c]pyridin-2-yl)-4-oxo-3-quinolinecarboxylicacid] | 0.06 (≈ 0.143 µM) | 40 (≈ 95.4 µM) | 0.06 (≈ 0.143 µM) | 0.25 (≈ 0.596 µM) | 0.06 (≈ 0.143 µM) | 0.06 (≈ 0.143 µM) |  | 0.5 (≈ 1.19 µM) | 0.03 (≈ 0.0715 µM) | 0.06 (≈ 0.143 µM) | 200 |  |  |  |  |  |  |  |  | 
CN1CCC2=C(C1)CN(c1c(F)cc3c(=O)c(C(=O)O)cn([C@@H]4C[C@@H]4F)c3c1F)C2 (single isomer, unassigned) [Example 3, (+)-6,8-difluoro-1-(cis-2-fluorocyclopropyl)-1,4-dihydro-7-(5-methyl-2,3,4,5,6,7-hexahydro-1H-pyrrolo[3,4-c]pyridin-2-yl)-4-oxo-3-quinolinecarboxylicacid] |  |  |  |  |  |  |  |  |  |  | 50 | 0.06 (≈ 0.143 µM) | 40 (≈ 95.4 µM) | 0.06 (≈ 0.143 µM) | 0.125 (≈ 0.298 µM) | 0.06 (≈ 0.143 µM) | 0.06 (≈ 0.143 µM) | 0.5 (≈ 1.19 µM) | ≤ 0.015 | 0.06 (≈ 0.143 µM)
CN1CCC2=C(C1)CN(c1c(F)cc3c(=O)c(C(=O)O)cn(C4CC4)c3c1F)C2.Cl [Ref. 1, 1-cyclopropyl-6,8-difluoro-1,4-dihydro-7-(5-methyl-2,3,4,5,6,7-hexahydro-1H-pyrrolo[3,4-c]pyridin-2-yl)-4-oxo-3-quinolinecarboxylic acid hydrochloride, reference compound] | 0.125 | 1 | 0.125 | 0.5 | 0.03 | 0.06 | 50 | 1 | ≤ 0.015 | 0.6 |  |  |  |  |  |  |  |  |  | 
CN1CCC2=C(C1)CN(c1c(F)cc3c(=O)c(C(=O)O)cn(C4CC4)c3c1Cl)C2 [Ref. 2, 8-chloro-1-cyclopropyl-6-fluoro-1,4-dihydro-7-(5-methyl-2,3,4,5,6,7-hexahydro-1H-pyrrolo[3,4-c]pyridin-2-yl)-4-oxo-3-quino-1-linecarboxylic acid, reference compound] | 0.125 (≈ 0.299 µM) | 16 (≈ 38.3 µM) | 0.06 (≈ 0.144 µM) | 0.25 (≈ 0.598 µM) | 0.06 (≈ 0.144 µM) | 0.06 (≈ 0.144 µM) | 50 | 0.5 (≈ 1.2 µM) | 0.03 (≈ 0.0718 µM) | 0.03 (≈ 0.0718 µM) |  |  |  |  |  |  |  |  |  | 
